Reference: patent US10676443B2, “Method for producing (4S)-4-[4-cyano-2-(methylsulfonyl)phenyl]-3,6-dimethyl-2-oxo-1-[3-(trifluoromethyl)phenyl]-1,2,3,4-tetrahydro pyrimidine-5-carbonitrile” (pH Pharma Co., Ltd., priority 2015, dated 2020)

Assay: stability of crystal form (A) on storage, even at high humidity
Type: physicochemical
Conditions: solid crystal form (A)

- stability properties (even at high humidity): very good
- storage time with no loss of stability (storage): more than 3 years
Compound: CC1=C(C#N)[C@@H](c2ccc(C#N)cc2S(C)(=O)=O)N(C)C(=O)N1c1cccc(C(F)(F)F)c1 [crystal form (A), (S)-4-[4-cyano-2-(methylsulfonyl)phenyl]-3,6-dimethyl-2-oxo-1-[3-(trifluoromethyl)phenyl]-1,2,3,4-tetrahydropyrimidine-5-carbonitrile]
